According to US20240252668A1, “ANTIBODY DRUG CONJUGATES AND METHODS FOR MAKING THEREOF” (Novartis AG, priority 2021, published 2024):
Read-outs that look alike come from different tables or passages of the source. Starred links: 1 amine or outer side, 2 acyl side, 3 side chain; linkers in the order of their positions; H or OH if unused. Positions of bridges follow the written chain, without caps; N, C: chain ends. Non-standard residues stand in square brackets, D forms with d. Residues, ends and D or L forms follow the SMILES beside them. *: point of attachment. Leu(3R-OH,Nα-propionyl) = CCC(=O)N[C@H](C(=O)*)[C@H](O)C(C)C; X1 = CC(C)[C@@H](O[*:3])[C@H](N[*:1])C(=O)[*:2]; NMeT = CN[C@H](C(=O)O)[C@@H](C)O; dPhLac = O=C(O)[C@H](O)Cc1ccccc1; NMeA = CN[C@@H](C)C(=O)O; NMeDha = C=C(NC)C(=O)O

Tests used:
[1] = Plasma incubation of compound (A1), human plasma, LC-MS/MS quantification; format: in vitro ADME; details: human plasma, 37° C.
Description: (§1) Plasma incubations and sample preparation: Compound (A1) was spiked at 5.00 μg/mL in PBS and pooled mixed gender mouse (CD-1), cynomolgus monkey and human plasma. Samples were incubated on a Thermomixer (Eppendorf) at 37° C. while shaking at 650 rpm. Aliquots of 50 μL (n=3) were drawn from each incubation tube following 0, 0.5, 1, 2, 4, 8 and 24 h of incubation. 50 μL of sample was quenched with 200 μL of acetonitrile, containing both generic internal standards, glybenclamide and warfarin, at 62.5 ng/mL. Samples were briefly vortexed and centrifuged for 20 min at 4000 rpm and 4° C. 200 μL of the supernatant was transferred into a clean 800 μL 96-well sample collection plate.
Quantification by LC-MS/MS: LC-MS/MS analysis was conducted with a Shimadzu Nexera UPLC coupled to AB Sciex QTRAP 6500 using the SRM acquisition mode (3 μL injected). Samples were analyzed using a ACE 3° C.18-PFP (3 μM, 2.1×50 mm column) at a column temperature of 65° C. The starting conditions were 97% H20 containing 0.1% formic acid and 3% CH3CN containing 0.1% formic acid. Quantification of compound (A1) and 5 was performed by MS-MRM (electrospray in positive mode, ion spray voltage: 5000 V, source temperature: 500° C., curtain gas: 25 psig, nebulizer gas: 60 psig, turbo ion spray gas: 40 psig, mass range: low, resolution Q1/Q3: unit, collision gas: medium, dwell time: 12 msec). Separate calibration curves were established with calibration standards of compounds (A1) and 5 at concentrations of 10.0, 5.00, 2.50, 1.00, 0.500, 0.100, 0.050 and 0.010 μg/mL respectively. Peak integration and quantification was conducted with the AB Sciex Analyst software (v.1.7) using the Analyst Classic algorithm. […]

[2] = tested on: A375 skin melanoma cell line (homozygous BRAF V600E); experiment: Cell proliferation assay (resazurin cell viability), A375 cell line; format: cell-based; details: Homo sapiens, A-375
How it was run: (§2)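 Cells seeded the night before, then treated 96 h at 37 °C in RPMI/10% FCS (A375 in DMEM/10% FCS); compounds 260 nM to 0.036 nM in ⅓ dilution steps, one compound 10000 nM to 1.52 nM. Viability read by resazurin addition after 96 h.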

[3] = Plasma incubation of compound (A1), mouse (CD-1) plasma; format: in vitro ADME
Description: as §1
(§3) Quantification by LC-MS/MS: LC-MS/MS analysis was conducted with a Shimadzu Nexera UPLC coupled to AB Sciex QTRAP 6500 using the SRM acquisition mode (3 μL injected). Samples were analyzed using a ACE 3° C.18-PFP (3 μM, 2.1×50 mm column) at a column temperature of 65° C. […] Quantification of compound (A1) and 5 was performed by MS-MRM (electrospray in positive mode, ion spray voltage: 5000 V, source temperature: 500° C., curtain gas: 25 psig, nebulizer gas: 60 psig, turbo ion spray gas: 40 psig, mass range: low, resolution Q1/Q3: unit, collision gas: medium, dwell time: 12 msec). […] Peak integration and quantification was conducted with the AB Sciex Analyst software (v.1.7) using the Analyst Classic algorithm.

[4] = Cell-based transwell assay with MDCK-low efflux monolayers (passive permeability); format: in vitro ADME; details: dog; MDCK-LE monolayers
Description: (§4) Cell-based transwell assays with MDCK-low efflux monolayers: Compounds (A1) and 2-15 were tested in MDCK cell sub-clones with low effluxt ransporter activity (MDCK-LE) in order to determine their passive permeability. The incubations were performed at a contract research organization as described previously.

MDCK-LE monolayers = experiment: as above; format: in vitro ADME; details: MDCK-LE monolayers
Description: as §4

[5] = Plasma incubation of compound (A1), cynomolgus monkey plasma; format: in vitro ADME
Description: as §1, §3

[6] = tested on: SK-MEL-30 skin melanoma cell line (heterozygous NRAS Q61K); experiment: Cell proliferation assay (resazurin cell viability), SK-MEL-30 cell line; format: cell-based; details: Homo sapiens
How it was run: as §2

C=C1C(=O)N[C@@H](C)C(=O)N(C)[C@@H](C)C(=O)N[C@@H]([C@H](OC(=O)[C@@H](NC(=O)CC)[C@H](O)C(C)C)C(C)C)C(=O)N(C)[C@@H]([C@@H](C)OC)C(=O)O[C@H](C(C)C)[C@H](NC(C)=O)C(=O)O[C@H](Cc2ccccc2)C(=O)N1C [Compound (A1), FR900359] (Ac-[X1][dPhLac][NMeDha]A[NMeA][X1](Leu(3R-OH,Nα-propionyl))[NMeT](Me); ester 1-C)
Concentration of (A1), Aliquot 1 ([1]; 0 h): 4620 ng/mL
Concentration of (A1), Aliquot 2 ([1]; 0 h): 4350 ng/mL
Concentration of (A1), Aliquot 3 ([1]; 0 h): 4750 ng/mL
Mean concentration of (A1) ([1]; 0 h): 4570 ng/mL
Concentration of (A1), Aliquot 1 ([1]; 0.5 h): 5150 ng/mL
Concentration of (A1), Aliquot 2 ([1]; 0.5 h): 5100 ng/mL
Concentration of (A1), Aliquot 3 ([1]; 0.5 h): 5100 ng/mL
Mean concentration of (A1) ([1]; 0.5 h): 5120 ng/mL
Concentration of (A1), Aliquot 1 ([1]; 1 h): 4980 ng/mL
Concentration of (A1), Aliquot 2 ([1]; 1 h): 4580 ng/mL
Concentration of (A1), Aliquot 3 ([1]; 1 h): 5020 ng/mL
Mean concentration of (A1) ([1]; 1 h): 4860 ng/mL
Concentration of (A1), Aliquot 1 ([1]; 2 h): 4790 ng/mL
Concentration of (A1), Aliquot 2 ([1]; 2 h): 5130 ng/mL
Concentration of (A1), Aliquot 3 ([1]; 2 h): 4680 ng/mL
Mean concentration of (A1) ([1]; 2 h): 4870 ng/mL
Concentration of (A1), Aliquot 1 ([1]; 4 h): 4140 ng/mL
Concentration of (A1), Aliquot 2 ([1]; 4 h): 4350 ng/mL
Concentration of (A1), Aliquot 3 ([1]; 4 h): 4350 ng/mL
Mean concentration of (A1) ([1]; 4 h): 4280 ng/mL
Concentration of (A1), Aliquot 1 ([1]; 8 h): 3260 ng/mL
Concentration of (A1), Aliquot 2 ([1]; 8 h): 3660 ng/mL
Concentration of (A1), Aliquot 3 ([1]; 8 h): 3600 ng/mL
Mean concentration of (A1) ([1]; 8 h): 3510 ng/mL
Concentration of (A1), Aliquot 1 ([1]; 24 h): 1350 ng/mL
Concentration of (A1), Aliquot 2 ([1]; 24 h): 1430 ng/mL
Concentration of (A1), Aliquot 3 ([1]; 24 h): 1290 ng/mL
Mean concentration of (A1) ([1]; 24 h): 1360 ng/mL
GI50 ([2]; A375 (GNAQ/11 wild type), 96 hours of treatment, read-out: GI50 by cell line, A375): > 260 nM
GI50 ([2]; A375 cell line, average of Rep. 1 and 2, read-out: GI50 A375 Average): > 260 nM
GI50 ([2]; A375 cell line, replicate 1, read-out: GI50 A375 Rep. 1): > 260 nM
GI50 ([2]; A375 cell line, replicate 2, read-out: GI50 A375 Rep. 2): > 260 nM
plasma stability / metabolite formation compared with human plasma [3]: Very similar results
Papp A→B [4]: 4.06 ×10⁻⁶ cm/s
recovery [4]: 65%
% Fraction absorbed (MDCK-LE monolayers): 59.7%
plasma stability / metabolite formation compared with human plasma [5]: Very similar results
GI50 ([6]; SK-MEL-30 (GNAQ/11 wild type), 96 hours of treatment, read-out: GI50 by cell line, SK-MEL-30): > 260 nM
GI50 ([6]; SK-MEL-30 cell line, average of Rep. 1 and 2, read-out: GI50 SK-MEL-30 Average): > 260 nM
GI50 ([6]; SK-MEL-30 cell line, replicate 1, read-out: GI50 SK-MEL-30 Rep. 1): > 260 nM
GI50 ([6]; SK-MEL-30 cell line, replicate 2, read-out: GI50 SK-MEL-30 Rep. 2): > 260 nM
